Test results reported in ChEMBL document CHEMBL2321762, “Design, synthesis, and SAR of N-((1-(4-(propylsulfonyl)piperazin-1-yl)cycloalkyl)methyl)benzamide inhibitors of glycine transporter-1” (Bioorg Med Chem Lett, 2013).
Activity calls are given as the source filed them. The rule behind the calls is not given here.

What was measured:
[1] = biological target: T1, Sodium- and chloride-dependent glycine transporter 2 (Homo sapiens, UniProt Q9Y345); assay: Inhibition of human GlyT2 expressed in HEK293 cells assessed as inhibition of [3H]glycine uptake by scintillation proximity assay; format: cell-based
T1 sequence (Q9Y345 whole entry): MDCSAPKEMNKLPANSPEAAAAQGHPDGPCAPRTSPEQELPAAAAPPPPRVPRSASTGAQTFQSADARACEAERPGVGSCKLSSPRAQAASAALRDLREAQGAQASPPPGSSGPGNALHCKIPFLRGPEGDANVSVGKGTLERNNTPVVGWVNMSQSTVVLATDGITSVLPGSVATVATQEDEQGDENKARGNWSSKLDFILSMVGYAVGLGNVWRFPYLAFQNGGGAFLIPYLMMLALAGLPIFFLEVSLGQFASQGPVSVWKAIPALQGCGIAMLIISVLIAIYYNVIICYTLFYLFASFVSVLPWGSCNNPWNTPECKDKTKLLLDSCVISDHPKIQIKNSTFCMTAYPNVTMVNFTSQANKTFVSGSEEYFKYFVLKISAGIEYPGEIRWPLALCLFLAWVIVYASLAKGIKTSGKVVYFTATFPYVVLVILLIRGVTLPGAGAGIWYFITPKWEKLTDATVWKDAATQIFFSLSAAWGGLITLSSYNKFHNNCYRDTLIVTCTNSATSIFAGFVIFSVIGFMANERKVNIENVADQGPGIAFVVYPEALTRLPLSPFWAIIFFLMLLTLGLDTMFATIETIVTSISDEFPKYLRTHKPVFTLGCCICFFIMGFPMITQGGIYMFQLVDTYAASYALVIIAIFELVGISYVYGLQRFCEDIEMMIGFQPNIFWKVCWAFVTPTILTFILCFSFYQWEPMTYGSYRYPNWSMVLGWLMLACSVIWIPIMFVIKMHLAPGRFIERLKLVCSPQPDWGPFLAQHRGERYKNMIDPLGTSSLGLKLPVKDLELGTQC

[2] = Metabolic stability in human liver microsomes assessed as compound remaining at 10 uM after 60 mins; format: ADME, Microsome; conditions: read-out: Stability
[3] = biological target: T2, Sodium- and chloride-dependent glycine transporter 1 (Homo sapiens, UniProt P48067); assay: Inhibition of GlyT1a in human JAR cells assessed as inhibition of [3H]glycine uptake by scintillation proximity assay; format: cell-based
T2 sequence (P48067 whole entry): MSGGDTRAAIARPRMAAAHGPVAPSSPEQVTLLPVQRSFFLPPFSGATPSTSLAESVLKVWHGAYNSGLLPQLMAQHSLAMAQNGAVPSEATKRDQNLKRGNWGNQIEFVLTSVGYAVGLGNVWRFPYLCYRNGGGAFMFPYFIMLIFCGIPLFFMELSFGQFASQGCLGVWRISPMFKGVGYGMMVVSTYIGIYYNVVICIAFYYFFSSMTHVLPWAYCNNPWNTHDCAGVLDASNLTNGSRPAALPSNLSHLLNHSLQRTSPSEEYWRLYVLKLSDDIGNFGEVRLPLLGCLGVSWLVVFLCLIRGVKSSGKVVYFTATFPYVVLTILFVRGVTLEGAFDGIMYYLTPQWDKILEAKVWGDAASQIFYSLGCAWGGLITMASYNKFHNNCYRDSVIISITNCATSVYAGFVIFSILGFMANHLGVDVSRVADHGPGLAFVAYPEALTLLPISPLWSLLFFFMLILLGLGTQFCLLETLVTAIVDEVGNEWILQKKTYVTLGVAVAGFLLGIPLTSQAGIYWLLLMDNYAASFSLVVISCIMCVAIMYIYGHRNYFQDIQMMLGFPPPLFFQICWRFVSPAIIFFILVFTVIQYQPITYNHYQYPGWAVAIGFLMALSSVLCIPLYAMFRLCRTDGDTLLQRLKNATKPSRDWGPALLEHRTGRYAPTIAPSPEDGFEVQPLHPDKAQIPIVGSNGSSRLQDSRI

[4] = Intrinsic clearance in human liver microsomes at 1 uM; format: ADME, Microsome; conditions: read-out: CLH
[5] = Drug uptake in po dosed rat CSF after 30 mins; format: ADME, organism-based, Cerebrospinal fluid; conditions: in vivo, 0.5 h
[6] = Total plasma clearance in rat at 2 mg/kg, iv and 10 mg/kg, po; format: ADME, organism-based
[7] = test system: Rattus norvegicus; assay: Antischizophrenic activity in po dosed rat assessed as increased glycine level in CSF after 30 mins relative to control; format: functional, organism-based
[8] = Volume of distribution at steady state in rat at 2 mg/kg, iv and 10 mg/kg, po; format: ADME, organism-based; conditions: in vivo, read-out: Vdss
[9] = AUC (0 to infinity) in rat at 2 mg/kg, iv and 10 mg/kg, po; format: ADME, organism-based; conditions: plasma
[10] = test system: Salmonella typhimurium; assay: Mutagenicity against Salmonella typhimurium TA100 by mini-AMES test in absence of rat S9 fraction; format: toxicity, organism-based; conditions: salmonella enterica subsp. enterica serovar typhimurium
[11] = test system: Salmonella typhimurium; assay: Mutagenicity against Salmonella typhimurium TA98 by mini-AMES test in presence of rat S9 fraction; format: toxicity, organism-based; conditions: salmonella enterica subsp. enterica serovar typhimurium
[12] = test system: Rattus norvegicus; assay: Antischizophrenic activity in rat assessed as increased glycine level in CSF at 30 to 75 mg/kg, po after 30 mins relative to control; format: functional, organism-based
[13] = Intrinsic clearance in rat liver microsomes at 1 uM; format: ADME, Microsome; conditions: read-out: CLH
[14] = Tmax in rat at 2 mg/kg, iv and 10 mg/kg, po; format: ADME, organism-based; conditions: in vivo
[15] = test system: Salmonella typhimurium; assay: Mutagenicity against Salmonella typhimurium TA100 by mini-AMES test in presence of rat S9 fraction; format: toxicity, organism-based; conditions: salmonella enterica subsp. enterica serovar typhimurium
[16] = biological target: Cytochrome P450 2C19 (Homo sapiens, UniProt P33261); assay: Inhibition of CYP2C19 (unknown origin); format: ADME
Sequence of Cytochrome P450 2C19 (P33261 whole entry): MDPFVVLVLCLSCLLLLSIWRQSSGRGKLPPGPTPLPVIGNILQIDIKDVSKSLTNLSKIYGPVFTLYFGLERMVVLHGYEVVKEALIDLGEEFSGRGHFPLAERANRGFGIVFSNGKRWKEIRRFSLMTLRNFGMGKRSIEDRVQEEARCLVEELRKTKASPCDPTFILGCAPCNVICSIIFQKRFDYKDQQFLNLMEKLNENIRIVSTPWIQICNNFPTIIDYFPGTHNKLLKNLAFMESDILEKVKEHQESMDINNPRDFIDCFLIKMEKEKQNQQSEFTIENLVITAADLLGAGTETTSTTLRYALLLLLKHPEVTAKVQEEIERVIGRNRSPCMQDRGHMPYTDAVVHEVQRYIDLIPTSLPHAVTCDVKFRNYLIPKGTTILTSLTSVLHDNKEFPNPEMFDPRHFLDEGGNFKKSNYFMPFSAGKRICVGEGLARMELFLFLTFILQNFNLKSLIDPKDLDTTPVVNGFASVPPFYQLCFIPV

[17] = biological target: Cytochrome P450 2C9 (Homo sapiens, UniProt P11712); assay: Inhibition of CYP2C9 (unknown origin); format: ADME
Sequence of Cytochrome P450 2C9 (P11712 whole entry): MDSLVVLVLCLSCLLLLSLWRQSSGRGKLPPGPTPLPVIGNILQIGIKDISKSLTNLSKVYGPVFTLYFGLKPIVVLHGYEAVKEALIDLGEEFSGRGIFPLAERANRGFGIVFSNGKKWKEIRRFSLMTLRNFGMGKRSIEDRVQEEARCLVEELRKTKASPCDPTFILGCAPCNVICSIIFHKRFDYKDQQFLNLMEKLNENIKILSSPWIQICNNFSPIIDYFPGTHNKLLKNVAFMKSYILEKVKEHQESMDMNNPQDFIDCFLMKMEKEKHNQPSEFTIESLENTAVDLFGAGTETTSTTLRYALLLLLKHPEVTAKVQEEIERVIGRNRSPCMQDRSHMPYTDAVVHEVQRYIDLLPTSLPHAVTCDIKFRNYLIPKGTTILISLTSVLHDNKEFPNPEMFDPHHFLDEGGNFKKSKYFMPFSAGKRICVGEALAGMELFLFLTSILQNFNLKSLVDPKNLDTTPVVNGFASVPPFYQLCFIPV

[18] = biological target: Cytochrome P450 3A4 (Homo sapiens, UniProt P08684); assay: Inhibition of CYP3A4 (unknown origin); format: ADME
Sequence of Cytochrome P450 3A4 (P08684 whole entry): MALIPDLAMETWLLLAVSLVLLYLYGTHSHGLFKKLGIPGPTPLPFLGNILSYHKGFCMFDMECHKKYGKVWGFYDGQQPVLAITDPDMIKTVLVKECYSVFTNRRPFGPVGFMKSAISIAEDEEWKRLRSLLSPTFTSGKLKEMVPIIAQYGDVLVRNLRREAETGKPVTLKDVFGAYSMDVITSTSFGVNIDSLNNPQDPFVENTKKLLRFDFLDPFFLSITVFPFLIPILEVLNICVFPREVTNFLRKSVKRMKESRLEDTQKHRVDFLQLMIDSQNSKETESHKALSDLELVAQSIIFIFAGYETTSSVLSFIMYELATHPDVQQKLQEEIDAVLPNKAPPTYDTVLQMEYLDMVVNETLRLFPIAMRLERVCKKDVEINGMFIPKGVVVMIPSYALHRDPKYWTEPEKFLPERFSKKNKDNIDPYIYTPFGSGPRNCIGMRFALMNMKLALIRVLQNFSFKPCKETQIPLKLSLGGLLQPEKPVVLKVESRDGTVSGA

[19] = Ratio of drug uptake in brain to plasma in rat at 10 to 75 mg/kg, po after 30 mins; format: ADME, organism-based; set-up: dose 10-75 mg/kg, route oral; conditions: read-out: BPR
[20] = Cmax in rat at 2 mg/kg, iv and 10 mg/kg, po; format: ADME, organism-based; conditions: in vivo
[21] = Oral bioavailability in rat at 10 mg/kg; format: ADME, organism-based; conditions: in vivo
[22] = biological target: Cytochrome P450 2D6 (Homo sapiens, UniProt P10635); assay: Inhibition of CYP2D6 (unknown origin); format: ADME
Sequence of Cytochrome P450 2D6 (P10635 whole entry): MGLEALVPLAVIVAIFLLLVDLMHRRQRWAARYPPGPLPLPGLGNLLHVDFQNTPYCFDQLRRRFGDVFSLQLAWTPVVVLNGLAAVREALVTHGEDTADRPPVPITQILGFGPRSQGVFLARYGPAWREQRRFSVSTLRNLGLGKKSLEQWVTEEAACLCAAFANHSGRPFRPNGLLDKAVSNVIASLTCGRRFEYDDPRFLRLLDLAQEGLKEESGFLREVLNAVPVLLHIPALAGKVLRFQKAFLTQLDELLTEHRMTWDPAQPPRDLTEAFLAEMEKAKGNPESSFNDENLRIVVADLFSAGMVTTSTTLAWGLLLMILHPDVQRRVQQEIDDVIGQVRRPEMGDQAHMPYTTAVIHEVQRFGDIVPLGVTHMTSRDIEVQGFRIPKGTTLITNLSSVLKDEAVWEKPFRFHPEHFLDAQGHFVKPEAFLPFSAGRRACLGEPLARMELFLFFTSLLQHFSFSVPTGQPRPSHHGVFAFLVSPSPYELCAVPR

[23] = Plasma protein binding in human; format: ADME, cell-free; conditions: read-out: PPB (converted)
[24] = test system: Salmonella typhimurium; assay: Mutagenicity against Salmonella typhimurium TA98 by mini-AMES test in absence of rat S9 fraction; format: toxicity, organism-based; conditions: salmonella enterica subsp. enterica serovar typhimurium
[25] = Plasma protein binding in rat; format: ADME, cell-free; conditions: read-out: PPB (converted)
[26] = Terminal half life in rat at 2 mg/kg, iv and 10 mg/kg, po; format: ADME, organism-based; conditions: in vivo, read-out: beta t1/2 (converted)

CCCS(=O)(=O)N1CCN(C2(CNC(=O)c3ccc(F)cc3C)CCCCC2)CC1
IC50 [1]: > 75 µM | remaining at 1 h, 10 µM [2]: 2%

CCCS(=O)(=O)N1CCN(C2(CNC(=O)c3cccc(C(F)(F)F)c3Cl)CCCCC2)CC1
IC50 [1]: > 75 µM | IC50 [3]: 0.0779 µM | remaining at 1 h, 10 µM [2]: 1%

CCCS(=O)(=O)N1CCN(C2(CNC(=O)c3c(F)cccc3F)CCC(F)(F)CC2)CC1
microsomal CLint at 1 µM [4]: 13 µL/min/mg | Drug uptake [5]: Dose-dependent effect | clearance [6]: 22 mL/min/kg | Activity [7]: Dose-dependent effect | Vd [8]: 3.26 L/kg | AUC(0-inf) [9]: 2000 ng·h/mL | Activity [10]: Non-toxic | Activity [11]: Non-toxic | Activity [12]: Active | microsomal CLint at 1 µM [13]: 5.5 µL/min/mg | Tmax [14]: 1.5 h | remaining at 1 h, 10 µM [2]: 64% | Activity [15]: Non-toxic | IC50 [16]: > 10 µM | IC50 [17]: > 10 µM | IC50 [18]: > 10 µM | Kp at 0.5 h [19]: 0.13 | Cmax [20]: 486 ng/mL | bioavailability [21]: 25.7% | IC50 [22]: > 10 µM | fraction unbound [23]: 0.13 | Activity [24]: Non-toxic | fraction unbound [25]: 0.16 | half-life [26]: 2.9 h

CCCS(=O)(=O)N1CCN(C2(CNC(=O)c3c(F)cccc3F)C[C@H]3C[C@H]3C2)CC1 (mixture of isomers)
IC50 [3]: 0.621 µM

CCCS(=O)(=O)N1CCN(C2(CNC(=O)c3ccccc3OC(F)(F)F)CCCCC2)CC1
IC50 [1]: > 75 µM | remaining at 1 h, 10 µM [2]: 2%

CCCS(=O)(=O)N1CCN(C2(CNC(=O)c3ccc(OC)cc3F)CCCCC2)CC1
IC50 [1]: > 75 µM | IC50 [3]: 0.0171 µM | remaining at 1 h, 10 µM [2]: 4%

CCCS(=O)(=O)N1CCN(C2(CNC(=O)c3ccc(OC(F)(F)F)cc3)CCCCC2)CC1
IC50 [1]: > 75 µM | remaining at 1 h, 10 µM [2]: 11%

CCCS(=O)(=O)N1CCN(C2(CNC(=O)c3c(N)cccc3Cl)CCN(C)CC2)CC1
remaining at 1 h, 10 µM [2]: 40%

CCCS(=O)(=O)N1CCN(C2(CNC(=O)c3ccc(Cl)cc3)CCCCC2)CC1
IC50 [1]: > 75 µM | IC50 [3]: 0.175 µM | remaining at 1 h, 10 µM [2]: 4%

CCCS(=O)(=O)N1CCN(C2(CNC(=O)c3c(OC)cc(C(F)(F)F)cc3C(F)(F)F)CCCCC2)CC1
IC50 [1]: > 75 µM | IC50 [3]: 0.0044 µM | remaining at 1 h, 10 µM [2]: 10%

CCCS(=O)(=O)N1CCN(C2(CNC(=O)c3cccc(C(F)(F)F)c3)CCCCC2)CC1
IC50 [1]: > 75 µM | IC50 [3]: 0.523 µM

CCCS(=O)(=O)N1CCN(C2(CNC(=O)c3c(OC)cc(F)cc3SC)CCCCC2)CC1
IC50 [3]: 0.0061 µM | remaining at 1 h, 10 µM [2]: 1%

CCCS(=O)(=O)N1CCN(C2(CNC(=O)c3ccc(Cl)cc3Cl)CCOCC2)CC1
IC50 [3]: 0.5 µM | remaining at 1 h, 10 µM [2]: 100%

CCCS(=O)(=O)N1CCN(C2(CNC(=O)c3ccccc3C(F)(F)F)CCCCC2)CC1
remaining at 1 h, 10 µM [2]: 5%

CCCS(=O)(=O)N1CCN(C2(CNC(=O)c3c(F)cccc3F)CCCCC2)CC1
IC50 [1]: > 75 µM | remaining at 1 h, 10 µM [2]: 16%

CCCS(=O)(=O)N1CCN(C2(CNC(=O)c3ccc(Cl)c(Cl)c3)CCCCC2)CC1
IC50 [1]: > 75 µM | remaining at 1 h, 10 µM [2]: 5%

CCCS(=O)(=O)N1CCN(C2(CNC(=O)c3c(Cl)cccc3Cl)CCCCC2)CC1
IC50 [1]: > 75 µM | IC50 [3]: 0.0128 µM | remaining at 1 h, 10 µM [2]: 3%

CCCS(=O)(=O)N1CCN(C2(CNC(=O)c3c(N)cccc3Cl)CCCCC2)CC1
IC50 [1]: > 75 µM | IC50 [3]: 0.0151 µM | remaining at 1 h, 10 µM [2]: 29%

CCCS(=O)(=O)N1CCN(C2(CNC(=O)c3ccc(Cl)cc3Cl)CCCCC2)CC1
IC50 [1]: > 75 µM | IC50 [3]: 0.0227 µM | remaining at 1 h, 10 µM [2]: 11%

CCCS(=O)(=O)N1CCN(C2(CNC(=O)c3c(N)cccc3Cl)CCCCCC2)CC1
IC50 [3]: 0.0063 µM
